According to ChEMBL document CHEMBL1201862, “PubChem BioAssay data set” (2004):
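Where inhibition never reached the appropriate level, the endpoint shown equals the highest concentration tested. Otherwise, values were interpolated linearly from a five-concentration, 48-hour dose response in 96-well plates. At the GI50, growth is halved.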 Calls of active or inactive are those of the source. Cut-off read from the data, not from the text of the source: active = GI50 up to about 1.1 µM and inactive = higher.

What was measured:
Test in all cases: NCI tumour cell line growth inhibition, 48 h
[1] = system: DLD-1
[2] = system: DMS-114
[3] = system: DMS-273
[4] = system: HCT-116
[5] = system: HOP-62
[6] = system: LOX IMVI
[7] = system: M14
[8] = system: Malme-3M
[9] = system: NCI-H226
[10] = system: NCI-H23
[11] = system: RPMI-8226
[12] = system: RXF 393
[13] = system: SNB-75
[14] = system: UACC-62
[15] = system: XF498
[16] = system: SK-MEL-2

SMILES	GI50 [1]	GI50 [2]	GI50 [3]	GI50 [4]	GI50 [5]	GI50 [6]	GI50 [7]	GI50 [8]	GI50 [9]	GI50 [10]	GI50 [11]	GI50 [12]	GI50 [13]	GI50 [14]	GI50 [15]	GI50 [16]
N#CC(C#N)=C1NC(=O)CC(=O)N1	> 100 µM (inactive)	> 100 µM (inactive)	> 100 µM (inactive)	> 100 µM (inactive)	> 100 µM (inactive)	> 100 µM (inactive)	> 100 µM (inactive)	> 100 µM (inactive)	> 100 µM (inactive)	> 100 µM (inactive)	> 100 µM (inactive)	> 100 µM (inactive)	> 100 µM (inactive)	> 100 µM (inactive)	> 100 µM (inactive)	
Cn1c(=O)c2c3ccccc3c(C(=O)c3ccccc3)n2c2ccccc21	8.24 µM (inactive)	3.67 µM (inactive)	3.27 µM (inactive)	4.12 µM (inactive)	> 42.8 µM (inactive)	9.64 µM (inactive)	8.55 µM (inactive)	5.62 µM (inactive)	> 56.1 µM (inactive)	23.3 µM (inactive)	3.55 µM (inactive)	14.7 µM (inactive)	3.18 µM (inactive)	4.02 µM (inactive)	> 50.9 µM (inactive)	15.5 µM (inactive)
Cc1ccc(NC(=O)C2C3CCC(O3)C2C(=O)O)cc1 (stereo not given)	> 54.1 µM (inactive)	33.3 µM (inactive)	> 57.8 µM (inactive)	> 39 µM (inactive)	> 100 µM (inactive)	> 38.7 µM (inactive)	> 49.4 µM (inactive)	> 100 µM (inactive)	56.5 µM (inactive)	> 100 µM (inactive)	39.6 µM (inactive)	15.8 µM (inactive)	31.9 µM (inactive)	> 46.6 µM (inactive)	22.6 µM (inactive)	64.9 µM (inactive)
C[C@@H](CO)OCOCc1ccccc1	> 100 µM (inactive)	> 100 µM (inactive)	> 100 µM (inactive)	> 100 µM (inactive)	> 100 µM (inactive)	> 100 µM (inactive)	> 100 µM (inactive)	> 100 µM (inactive)		> 100 µM (inactive)	> 100 µM (inactive)	> 100 µM (inactive)	> 100 µM (inactive)	> 100 µM (inactive)	> 100 µM (inactive)	> 100 µM (inactive)
Cc1c(C(=O)C/C(=N/NC(=O)C[n+]2ccccc2)C(=O)Nc2ccccc2)[n+]([O-])c2ccccc2[n+]1[O-]	> 100 µM (inactive)	> 100 µM (inactive)	> 100 µM (inactive)	> 100 µM (inactive)	> 100 µM (inactive)	> 100 µM (inactive)	> 100 µM (inactive)	> 100 µM (inactive)	> 100 µM (inactive)	> 100 µM (inactive)	> 100 µM (inactive)	> 100 µM (inactive)	> 100 µM (inactive)	> 100 µM (inactive)	> 100 µM (inactive)	> 100 µM (inactive)
CCC(CO)COC(=O)/C=C/C(=O)OCC(CC)CO (stereo not given)	> 85.9 µM (inactive)	> 100 µM (inactive)	> 100 µM (inactive)	> 74.3 µM (inactive)	> 100 µM (inactive)	> 100 µM (inactive)	> 71.8 µM (inactive)	> 61 µM (inactive)	> 100 µM (inactive)	> 84.7 µM (inactive)	33.3 µM (inactive)	> 65.3 µM (inactive)	73.5 µM (inactive)	> 72.4 µM (inactive)	> 100 µM (inactive)	> 100 µM (inactive)
CC(=O)N1C(=O)C(=O)c2cc(Cl)ccc21	> 100 µM (inactive)	> 100 µM (inactive)	> 100 µM (inactive)			> 100 µM (inactive)	> 100 µM (inactive)	> 100 µM (inactive)	> 100 µM (inactive)	> 100 µM (inactive)	> 100 µM (inactive)	> 100 µM (inactive)	> 100 µM (inactive)	> 100 µM (inactive)	0.234 µM (active)	
N#Cc1ccc(Nc2cnc3ccc(N)cc3n2)cc1	> 100 µM (inactive)	> 100 µM (inactive)	> 100 µM (inactive)	> 100 µM (inactive)	> 100 µM (inactive)	> 100 µM (inactive)	> 100 µM (inactive)	> 100 µM (inactive)	> 100 µM (inactive)	> 100 µM (inactive)	> 100 µM (inactive)	> 100 µM (inactive)	> 100 µM (inactive)	> 100 µM (inactive)	> 100 µM (inactive)	> 100 µM (inactive)
O=C(Nc1cccc(Cl)c1)c1cc2cc(/N=N/c3ccc(Br)cc3)ccc2oc1=O	40 µM (inactive)	18.4 µM (inactive)	21.3 µM (inactive)	37.2 µM (inactive)	> 100 µM (inactive)	14.4 µM (inactive)	22.3 µM (inactive)	> 100 µM (inactive)		22.6 µM (inactive)	33.2 µM (inactive)	16.1 µM (inactive)	37 µM (inactive)	14.1 µM (inactive)	46.8 µM (inactive)	12.9 µM (inactive)
COc1c(OC)c(N)c2cc(C)c(=O)c(C)cc2c1N	55.7 µM (inactive)	50.9 µM (inactive)	> 100 µM (inactive)	97.1 µM (inactive)	> 100 µM (inactive)	55.2 µM (inactive)	> 100 µM (inactive)	> 100 µM (inactive)		> 100 µM (inactive)	> 100 µM (inactive)	> 100 µM (inactive)	56.4 µM (inactive)	> 100 µM (inactive)	> 100 µM (inactive)	> 100 µM (inactive)
C=C1CC(CCCl)(c2ccccc2)OC1=O (stereo not given)	20.1 µM (inactive)	37.9 µM (inactive)	34.7 µM (inactive)	22.9 µM (inactive)	> 100 µM (inactive)	30.5 µM (inactive)	19.5 µM (inactive)	23.6 µM (inactive)	> 100 µM (inactive)	> 100 µM (inactive)	15.8 µM (inactive)	13.3 µM (inactive)	22.4 µM (inactive)	48.4 µM (inactive)	41.2 µM (inactive)	> 57.5 µM (inactive)
COc1nc(OC)nc(Sc2ccc(Sc3ccc(Sc4nc(OC)nc(OC)n4)cc3)cc2)n1	> 100 µM (inactive)	24.1 µM (inactive)	> 100 µM (inactive)	> 100 µM (inactive)		> 100 µM (inactive)	> 100 µM (inactive)	> 100 µM (inactive)	> 100 µM (inactive)	> 100 µM (inactive)	> 100 µM (inactive)	> 100 µM (inactive)	> 100 µM (inactive)	> 100 µM (inactive)	> 100 µM (inactive)	> 100 µM (inactive)
COc1c(OC2OC(CO)C(O)C(O)C2O)cc2c(c1OC)-c1ccc(OC)c(=O)cc1C(NC(C)=O)CC2 (stereo not given)	> 100 µM (inactive)	35.7 µM (inactive)	> 100 µM (inactive)	> 100 µM (inactive)	> 100 µM (inactive)	> 100 µM (inactive)	> 100 µM (inactive)	81.7 µM (inactive)	> 100 µM (inactive)	> 100 µM (inactive)	> 100 µM (inactive)	> 83.6 µM (inactive)	25.3 µM (inactive)	60.1 µM (inactive)	83.6 µM (inactive)	57.8 µM (inactive)
